Results from patent US11266655B2, “Methods and compositions for treating urea cycle disorders” (Camp4 Therapeutics Corporation, priority 2019, dated 2022).
Values joined by “and” are separate entries in the source; they are usually repeats but may differ in a detail not shown here. Equal values may be shown once. Where a name gives a salt, the structure may show the parent alone. Read-outs that look alike come from different tables or passages of the source.

Tests used:
ASS1 = assay: RNA-seq of compound-treated primary human hepatocytes, ASS1 expression; format: cell-based
SLC25A15 = assay: RNA-seq of compound-treated primary human hepatocytes, SLC25A15 expression; format: cell-based; conditions: for Relative SLC25A15 level vs Untreated (±Standard Deviation): primary human hepatocytes, triplicate (Table 24, FIG. 16A-B)
NAGS = format: cell-based, human; conditions: for Relative NAGS level vs Untreated (±Standard Deviation): primary human hepatocytes, triplicate (Table 21, FIG. 13)
SLC25A13 = assay: RNA-seq of compound-treated primary human hepatocytes, SLC25A13 expression; format: cell-based; conditions: primary human hepatocytes, triplicate (Table 23, FIG. 15)
OTC [1] = assay: RNA-seq of compound-treated primary human hepatocytes, OTC expression; format: cell-based
CPS1 [2] = assay: RNA-seq of compound-treated primary human hepatocytes, CPS1 expression; format: cell-based; conditions: for Relative CPS1 level vs Untreated (±Standard Deviation): triplicate (Table 19, FIG. 11)
ARG1 = assay: RNA-seq of compound-treated primary human hepatocytes, ARG1 expression; format: cell-based
urea cycle genes = assay: RNA-seq of primary human hepatocytes, compounds that modulate multiple urea cycle-related genes; format: cell-based; conditions: primary human hepatocytes, RNA-seq
Procedure: To identify small molecules that modulate urea cycle enzymes, primary human hepatocytes were prepared as a monoculture, and at least one small molecule compound was applied to the cells.
RNA-seq was performed to determine the effects of the compounds on the expression of urea cycle enzymes in hepatocytes. Fold change was calculated by dividing the level of expression in the cell system that had been perturbed by the level of expression in an unperturbed system. Changes in expression having a p-value ≤0.05 were considered significant.
Significance was defined as an FPKM ≥1, a log 2 (fold change) ≥0.5, and a q-value of ≤0.05 for selected gene target.

CPS1 [3] = assay: JAK1 inhibitor dose titration in hepatocytes of donors A and B, CPS1 mRNA normalized to B2M; format: cell-based, human; conditions: normalized to B2M
Procedure: (§1) Next, two JAK1 inhibitors were tested at increasing concentrations in a dose titration assy. Hepatocytes from two different donors (A and B) were incubated with the various concentrations of upadacitinib or oclacitinib maleate and harvested for mRNA analysis. OTC and CPS1 mRNA were normalized to house keeping gene B2M gene expression.

OTC [4] = assay: JAK inhibitors at 0.3 and 3 μM in primary human hepatocytes, OTC mRNA fold change; format: cell-based; conditions: fold change vs DMSO
Procedure: (§2) Additional small molecules that inhibit JAK1, JAK2, JAK3, or a combination of the JAK proteins were tested in primary human hepatocytes as described in Example 2. JAK inhibitors were tested in triplicate at 0.3 μM and 3 μM. The results are shown as the fold change (mRNA FC) in the mRNA levels of OTC and CPS1 genes after treatment compared to an untreated control (DMSO) and the standard deviation (SD).

OTC [5] = assay: JAK1 inhibitor dose titration in hepatocytes of donors A and B, OTC mRNA normalized to B2M; format: cell-based, human; conditions: normalized to B2M
Procedure: as §1

CPS1 [6] = assay: JAK inhibitors at 0.3 and 3 μM in primary human hepatocytes, CPS1 mRNA fold change; format: cell-based; conditions: fold change vs DMSO
Procedure: as §2

CPS1 [7] = assay: HSP90 or HSP70 inhibitors in primary human hepatocytes, CPS1 mRNA; format: cell-based; conditions: hepatocytes from Donor B, normalized to B2M
Procedure: (§3) Additional small molecules that inhibit HSP90 or HSP70 were tested in primary human hepatocytes as described in Example 2. HSP90 or HSP70 inhibitors were tested in triplicate at 0.3 μM and 3 μM. The results are shown as the fold change (mRNA FC) in the mRNA levels of OTC and CPS1 genes after treatment compared to an untreated control (DMSO) and the standard deviation (SD). In addition, a dose titration experiment was performed with selected HSP90 inhibitors. Hepatocytes were incubated with increasing concentrations of HSP90 inhibitors and the changes in OTC and CPS1 expression quantified as previously described.
(§4) HSP90 and HSP70 inhibitors were compared to confirm the role of HSP90 in modulating OTC and CPS1 expression. Hepatocytes from Donor B were incubated with various HSP90 inhibitors or an HSP70 inhibitor, Pifithrin-μ, and then harvested for mRNA quantification. OTC and CPS1 mRNA levels were normalized to B2M.

OTC [8] = assay: HSP90 or HSP70 inhibitors in primary human hepatocytes, OTC mRNA; format: cell-based; conditions: hepatocytes from Donor B, normalized to B2M
Procedure: as §3, §4

[9] = 10 μM, primary human hepatocytes, triplicate (Table 15, FIG. 7)
[10] = primary human hepatocytes, RNA-seq

## COc1cccc2cc(-c3nc([C@H]4CC[C@H](C(=O)O)CC4)n4ncnc(N)c34)[nH]c12 [OSI-027]
ASS1; 1 μM, primary human hepatocytes, triplicate (Table 15, FIG. 7)
  Relative ASS1 level vs Untreated (±Standard Deviation): 1.55 ± 0.16
ASS1; 3 μM, primary human hepatocytes, triplicate (Table 15, FIG. 7)
  Relative ASS1 level vs Untreated (±Standard Deviation): 1.45 ± 0.10
ASS1; [9]
  Relative ASS1 level vs Untreated (±Standard Deviation): 2.05 ± 0.00
SLC25A15; 1 μM
  Relative SLC25A15 level vs Untreated (±Standard Deviation): 1.53 ± 0.01
SLC25A15; 3 μM
  Relative SLC25A15 level vs Untreated (±Standard Deviation): 1.87 ± 0.46
SLC25A15; 10 μM
  Relative SLC25A15 level vs Untreated (±Standard Deviation): 1.52 ± 0.04
NAGS; 0.3 μM
  Relative NAGS level vs Untreated (±Standard Deviation): 1.46 ± 0.07
NAGS; 1 μM
  Relative NAGS level vs Untreated (±Standard Deviation): 1.37 ± 0.27
NAGS; 3 μM
  Relative NAGS level vs Untreated (±Standard Deviation): 2.51 ± 0.16
NAGS; 10 μM
  Relative NAGS level vs Untreated (±Standard Deviation): 2.14 ± 0.12
SLC25A13; 1 μM
  Relative SLC25A13 level vs Untreated (±Standard Deviation): 1.53 ± 0.01
SLC25A13; 3 μM
  Relative SLC25A13 level vs Untreated (±Standard Deviation): 1.87 ± 0.46
SLC25A13; 10 μM
  Relative SLC25A13 level vs Untreated (±Standard Deviation): 1.52 ± 0.04

## FC(F)(F)c1ccc(/C=C/c2nc(COc3ccc(CCCCn4ccnn4)cc3)co2)cc1 [Mubritinib (TAK 165), Mubritinib]
ASS1
  Relative ASS1 level vs Untreated (±Standard Deviation): 2.56 ± 0.11 and 2.23 ± 0.53 and 2.52 ± 0.15 and 1.66 ± 0.98 and 1.87 ± 0.24 and 2.14 ± 0.39 and 2.77 ± 0.69
  increase in ASS1 gene expression (Tables 15, 16, FIG. 7, 8): greatest increase
OTC [1]
  increase in OTC gene expression (Table 14, FIG. 6): significant increase
CPS1 [2]
  increase in CPS1 gene expression (Tables 19, 20, FIG. 11, 12): greatest increase
SLC25A15
  Increase in SLC25A15 gene expression (qualitative): greatest increase
ARG1
  Relative ARGI level vs Untreated (±Standard Deviation): 1.93 ± 0.05 and 1.86 ± 0.04
  increase in ARG1 gene expression (Tables 17, 18, FIG. 9, 10): greatest increase
SLC25A13; 0.3 μM
  Relative SLC25A13 level vs Untreated (±Standard Deviation): 1.34 ± 0.33

## Activin
Urea cycle genes
  number of urea cycle genes whose expression was significantly up-regulated: four
Urea cycle genes; urea cycle-related genes significantly increased (Table 10)
  Up-regulated Genes: NAGS, CPS1, OTC, ARG1
OTC [1]; [10]
  OTC expression, Fold change (Log 2) vs untreated: 0.94 Log 2
CPS1 [2]; [10]
  CPS1 expression, Fold change (Log 2) vs untreated: 2.23 Log 2
NAGS
  Fold change (Log 2) vs untreated, NAGS expression: 0.69 Log 2
ARG1; primary human hepatocytes, RNA-seq (Table 7)
  Fold change (Log 2) vs untreated, ARG1 expression: 2.01 Log 2

## CC[C@@H]1CN(C(=O)NCC(F)(F)F)C[C@@H]1c1cnc2cnc3[nH]ccc3n12 [upadacitinib]
CPS1 [3]; 0.1 uM
  CPS1 mRNA FC, Donor A: 1.26
  CPS1 mRNA FC, Donor B: 3.74
CPS1 [3]; 0.3 uM
  CPS1 mRNA FC, Donor A: 1.58
  CPS1 mRNA FC, Donor B: 2.54
CPS1 [3]; 1 uM
  CPS1 mRNA FC, Donor A: 2.70
  CPS1 mRNA FC, Donor B: 2.38
CPS1 [3]; 3 uM
  CPS1 mRNA FC, Donor A: 3.15
  CPS1 mRNA FC, Donor B: 1.43
CPS1 [3]; 10 uM
  CPS1 mRNA FC, Donor A: 4.25
  CPS1 mRNA FC, Donor B: 1.21
OTC [4]; 0.3 uM
  OTC mRNA FC: 2.91
OTC [4]; 3 uM
  OTC mRNA FC: 2.75
OTC [5]; 0.1 uM
  OTC mRNA FC, Donor A: 1.36
  OTC mRNA FC, Donor B: 1.56
OTC [5]; 0.3 uM
  OTC mRNA FC, Donor A: 1.99
  OTC mRNA FC, Donor B: 2.06
OTC [5]; 1 uM
  OTC mRNA FC, Donor A: 3.17
  OTC mRNA FC, Donor B: 3.54
OTC [5]; 3 uM
  OTC mRNA FC, Donor A: 4.81
  OTC mRNA FC, Donor B: 4.66
OTC [5]; 10 uM
  OTC mRNA FC, Donor A: 6.77
  OTC mRNA FC, Donor B: 9.39
CPS1 [6]; 0.3 uM
  CPS1 mRNA FC: 2.02
CPS1 [6]; 3 uM
  CPS1 mRNA FC: 1.39

## CO[C@H]1/C=C\C=C(/C)C(=O)NC2=CC(=O)C(NCCN(C)C)=C(C[C@@H](C)C[C@H](OC)[C@H](O)[C@@H](C)/C=C(\C)[C@@H]1OC(N)=O)C2=O [Alvespimycin hydrochloride]
CPS1 [7]; 0.3 uM
  CPS1 Expression mRNA FC: 1.41
CPS1 [7]; 3 uM
  CPS1 Expression mRNA FC: 1.54
OTC [8]; 0.3 uM
  OTC Expression mRNA FC: 1.94
OTC [8]; 3 uM
  OTC Expression mRNA FC: 1.03

## COc1ccc(-c2ccc3c(N4CCOC[C@@H]4C)nc(N4CCOC[C@@H]4C)nc3n2)cc1CO [AZD8055]
ASS1; [9]
  Relative ASS1 level vs Untreated (±Standard Deviation): 1.44 ± 0.27
CPS1 [2]; 0.3 μM, primary human hepatocytes
  Relative CPS1 level vs Untreated (±Standard Deviation): 1.38 ± 0.27
CPS1 [2]; 1 μM, primary human hepatocytes
  Relative CPS1 level vs Untreated (±Standard Deviation): 1.38 ± 0.67
CPS1 [2]; 3 μM, primary human hepatocytes
  Relative CPS1 level vs Untreated (±Standard Deviation): 1.60 ± 0.07
SLC25A15; 3 μM
  Relative SLC25A15 level vs Untreated (±Standard Deviation): 1.33 ± 0.06 and 1.85 ± 0.26
SLC25A15; 10 μM
  Relative SLC25A15 level vs Untreated (±Standard Deviation): 1.54 ± 0.12 and 1.68 ± 0.26
NAGS; 0.3 μM
  Relative NAGS level vs Untreated (±Standard Deviation): 1.31 ± 0.20
NAGS; 1 μM
  Relative NAGS level vs Untreated (±Standard Deviation): 1.41 ± 0.28
NAGS; 10 μM
  Relative NAGS level vs Untreated (±Standard Deviation): 1.93 ± 0.02
NAGS; Example 11, relative mRNA vs DMSO
  increase in NAGS gene expression (Tables 21, 22, FIG. 13, 14): greatest increase
ARG1; 1 μM, primary human hepatocytes, triplicate (Table 17, FIG. 9)
  Relative ARGI level vs Untreated (±Standard Deviation): 1.34 ± 0.24
ARG1; 3 μM, primary human hepatocytes, triplicate (Table 17, FIG. 9)
  Relative ARGI level vs Untreated (±Standard Deviation): 1.42 ± 0.03
ARG1; 10 μM, primary human hepatocytes, triplicate (Table 17, FIG. 9)
  Relative ARGI level vs Untreated (±Standard Deviation): 1.35 ± 0.08
SLC25A13; 3 μM
  Relative SLC25A13 level vs Untreated (±Standard Deviation): 1.33 ± 0.06
SLC25A13; 10 μM
  Relative SLC25A13 level vs Untreated (±Standard Deviation): 1.54 ± 0.12
